Test results: patent publication US10590114B2, “Compounds, compositions, and methods” (Denali Therapeutics Inc., priority 2016, dated 2020)

Columns and labels:
MDR1 (P-glycoprotein) = MDR1 (P-glycoprotein) (Homo sapiens (Human), UniProt P08183); assay: MDR1-MDCK permeability, bidirectional assay; type: in vitro ADME; details: MDR1-MDCK cells, efflux ratio, 1 μM, HBSS pH 7.4
Protocol: The blood brain barrier (BBB) separates circulating blood from the extracellular fluid of the central nervous system (CNS). The passive membrane permeability (Papp) and MDR1 (P-glycoprotein) substrate efflux potential were determined using the MDR1-MDCK cell line as an in vitro model of the effective permeability of a compound through the BBB. A bidirectional assay was conducted in pre-plated MDR1-MDCK cells using a 12 or 96-well plate in the absence or presence of MDR1 inhibitor (GF120918 or Valspodar). Assays were run in duplicate in transport buffer (HBSS, pH 7.4) for 90 or 120 min (minutes) at 37° C., using a test article concentration of 1 μM. […] Papp (apparent permeability expressed in cm/sec [centimeter/second]) values were calculated according to the following equation:
[formula] where VR is the solution volume in the receiver chamber (apical or basolateral side), Area is the surface area for the insert membrane), Time is incubation time expressed in seconds, CR is the peak area ratio (analyte/IS) in the receiver chamber, CA is the average of the initial and final concentrations in the donor chamber, and CO is the initial peak area ratio in the donor chamber. Papp was determined in both the apical to basolateral (A→B) and basolateral to apical (B→A) directions. […]

[1] = Metabolic stability in human liver microsomes; type: in vitro ADME; details: Table 5; 1 μM compound, 0.5 mg/mL protein, projected human hepatic clearance, well-stirred model
Protocol: Metabolic stability of compounds was evaluated in human liver microsomes (from Corning or XenoTech, LLC) using a 96-well plate assay format. Compounds were incubated at 37° C. at 1 μM final concentration in the microsomal matrix (0.5 mg/mL total protein) in the presence or absence of NADPH cofactor. An NADPH regenerating system, comprised of NADP, MgCl2, isocitric acid, and isocitrate dehydrogenase, was used in the assay. Enzymatic reactions were conducted for 0, 5, 10, 20, 30, or 60 min before termination by addition of acetonitrile containing tolbutamide and labetalol internal standards (100 ng/mL). After shaking for 10 min, plates were subjected to centrifugation (4000 rpm at 4° C.) for 20 min and supernatants were mixed 1:3 with HPLC grade water. Samples were analyzed by LC-MS/MS using appropriate MRM transitions for each analyte and internal standard (IS). Analyte/IS peak area ratios were used to determine percent compound remaining at each time point. Intrinsic clearance (Clint; expressed as mL·min^−1·mg^−1) was calculated from the first order elimination constant (k, min^−1) of test article decay and the volume of the incubation. These values were scaled to intrinsic organ clearance (Clint) using human specific scaling factors (48.8 mg microsomal protein per g liver; 25.7 g liver per kg body weight). […]

Chain of MDR1 (P-glycoprotein) (P08183 whole entry): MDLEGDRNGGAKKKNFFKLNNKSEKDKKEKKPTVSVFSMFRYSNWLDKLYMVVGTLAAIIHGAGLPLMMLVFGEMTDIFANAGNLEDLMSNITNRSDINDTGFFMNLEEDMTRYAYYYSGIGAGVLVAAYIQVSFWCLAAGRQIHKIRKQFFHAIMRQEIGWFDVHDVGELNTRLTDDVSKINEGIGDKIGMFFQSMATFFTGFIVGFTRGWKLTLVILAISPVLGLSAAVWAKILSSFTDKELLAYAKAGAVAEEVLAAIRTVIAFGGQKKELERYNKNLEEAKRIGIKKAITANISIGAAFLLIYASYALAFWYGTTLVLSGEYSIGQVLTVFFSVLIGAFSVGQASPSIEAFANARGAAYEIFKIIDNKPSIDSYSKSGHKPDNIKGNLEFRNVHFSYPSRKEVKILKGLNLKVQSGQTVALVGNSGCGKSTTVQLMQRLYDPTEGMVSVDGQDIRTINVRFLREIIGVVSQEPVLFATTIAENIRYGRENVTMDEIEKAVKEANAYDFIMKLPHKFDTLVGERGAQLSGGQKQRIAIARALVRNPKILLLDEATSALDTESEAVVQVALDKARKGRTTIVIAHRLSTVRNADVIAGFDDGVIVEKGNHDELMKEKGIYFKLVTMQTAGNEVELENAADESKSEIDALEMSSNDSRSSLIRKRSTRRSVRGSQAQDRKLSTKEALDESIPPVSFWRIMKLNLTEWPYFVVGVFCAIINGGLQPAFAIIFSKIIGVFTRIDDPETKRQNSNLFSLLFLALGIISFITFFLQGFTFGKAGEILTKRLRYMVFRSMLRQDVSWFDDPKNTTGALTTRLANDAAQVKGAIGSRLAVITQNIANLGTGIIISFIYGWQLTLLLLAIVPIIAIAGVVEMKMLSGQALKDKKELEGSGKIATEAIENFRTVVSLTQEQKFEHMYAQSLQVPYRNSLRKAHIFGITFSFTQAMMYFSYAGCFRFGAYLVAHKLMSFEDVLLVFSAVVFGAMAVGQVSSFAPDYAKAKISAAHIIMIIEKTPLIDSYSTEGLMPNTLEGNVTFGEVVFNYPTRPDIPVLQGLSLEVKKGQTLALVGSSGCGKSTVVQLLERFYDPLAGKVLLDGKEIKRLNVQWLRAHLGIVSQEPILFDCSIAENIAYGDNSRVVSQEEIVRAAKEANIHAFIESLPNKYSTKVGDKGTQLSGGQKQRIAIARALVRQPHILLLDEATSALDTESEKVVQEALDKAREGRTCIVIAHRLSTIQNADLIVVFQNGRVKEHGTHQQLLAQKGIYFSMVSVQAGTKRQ

| SMILES | MDR1 ER (MDR1 (P-glycoprotein)) | Human liver microsomes CLhep [1] [mL/min/kg] |
| --- | --- | --- |
| CCNc1nc(Nc2cc(C3(C)CCn4ncnc43)nn2C2CC2)ncc1C(F)(F)F (single isomer, unassigned) [Compound 172] | 42 | – |
| CNc1nc(Nc2cn(C(C)(C)c3ncn(C)n3)nc2C)ncc1C(F)(F)F [Compound 218] | – | 0 |
